Source: PubChem BioAssay (NCI)
Where “and” joins values, the source holds several entries; their conditions need not be identical. Identical values can stand only once.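 Each compound was tested at five concentrations against cells in 96-well plates for 48 hours. At the GI50, growth is halved. TGI is the concentration that stops growth completely.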

Tests used:
Experiment in all cases: NCI tumour cell line growth inhibition, 48 h
786-0 renal = test system: 786-0 renal
A549 NSCLC = test system: A549 NSCLC
HOP-62 NSCLC = test system: HOP-62 NSCLC
HS 578T breast = test system: HS 578T breast
MCF7 breast = test system: MCF7 breast
MDA-MB-435 = test system: MDA-MB-435
OVCAR-3 ovarian = test system: OVCAR-3 ovarian
SF-268 CNS = test system: SF-268 CNS
SK-MEL-2 melanoma = test system: SK-MEL-2 melanoma
SN12C renal = test system: SN12C renal

Structure (SMILES)	GI50 (786-0 renal)	TGI (786-0 renal)	GI50 (A549 NSCLC)	TGI (A549 NSCLC)	GI50 (HOP-62 NSCLC)	TGI (HOP-62 NSCLC)	GI50 (HS 578T breast)	TGI (HS 578T breast)	GI50 (MCF7 breast)	TGI (MCF7 breast)	GI50 (MDA-MB-435)	TGI (MDA-MB-435)	GI50 (OVCAR-3 ovarian)	TGI (OVCAR-3 ovarian)	GI50 (SF-268 CNS)	TGI (SF-268 CNS)	GI50 (SK-MEL-2 melanoma)	TGI (SK-MEL-2 melanoma)	GI50 (SN12C renal)	TGI (SN12C renal)
CO[C@H](C(=O)[C@@H](O)[C@@H](C)O)[C@@H]1Cc2cc3cc(O[C@H]4C[C@@H](O[C@H]5C[C@@H](O)[C@H](O)C(C)O5)[C@H](O)C(C)O4)c(C)c(O)c3c(O)c2C(=O)[C@H]1O[C@H]1C[C@@H](O[C@H]2C[C@@H](O[C@H]3C[C@@H](OC)[C@H](O)C(C)O3)[C@@H](O)C(C)O2)C(O)(O)C(C)O1 (stereo partly specified)	0.164 µM	> 25 µM	0.0843 µM	> 25 µM	0.0513 µM	> 25 µM	0.118 µM	> 7.66 µM	0.0108 µM	> 9.61 µM	0.171 µM	3.53 µM	0.24 µM	7.23 µM	0.128 µM	> 25 µM	0.0551 µM	0.592 µM	0.112 µM	> 25 µM
CC(=O)C1=C(O)C=C2Oc3c(C(=O)/C=C/c4cc(C(F)(F)F)cc(C(F)(F)F)c4)c(O)c(C)c(O)c3[C@]2(C)C1=O	0.602 µM	2.35 µM	0.666 µM	4.42 µM	1.18 µM	5.17 µM	0.861 µM	5.4 µM	0.427 µM	1.7 µM	0.587 µM	2.35 µM	0.543 µM	2.27 µM	0.736 µM	4.04 µM	0.448 µM	1.27 µM	0.513 µM	2.02 µM
CNC(=O)c1cc(COc2nnc(Nc3ccc(Cl)cc3)c3ccoc23)ccn1	2.36 µM and > 10 µM	6.7 µM and > 10 µM	4.66 µM and > 10 µM	20.1 µM and > 10 µM	3.31 µM and 9.48 µM	16 µM and > 10 µM	2.41 µM and 4.62 µM	10.9 µM and > 10 µM	7.17 µM and > 10 µM	36.1 µM and > 10 µM	10.4 µM and > 10 µM	43.9 µM and > 10 µM	11.1 µM and > 10 µM	26.4 µM and > 10 µM	4.66 µM and > 10 µM	26.2 µM and > 10 µM	6.71 µM and > 10 µM	21 µM and > 10 µM	8.86 µM and > 10 µM	27.2 µM and > 10 µM
N#Cc1cc(C#N)c(Cl)nc1N	–	> 10 µM	–	> 10 µM	–	> 10 µM	–	> 10 µM	–	> 10 µM	–	> 10 µM	–	> 10 µM	–	> 10 µM	–	> 10 µM	–	> 10 µM
COc1ccc(C#Cc2ccccc2C#CCCCCO)cc1	22.8 µM	45.9 µM	18.2 µM	33.7 µM	28.6 µM	45.4 µM	28.3 µM	65.1 µM	27.2 µM	59.1 µM	21.1 µM	38.9 µM	20.4 µM	40.2 µM	21.7 µM	42.9 µM	19.8 µM	38.9 µM	11 µM	23.7 µM
C(=Nc1ccccc1)C1CCCC[N-]1.C(=Nc1ccccc1)C1CCCC[N-]1.[Cu+2].[O-][Cl+3]([O-])([O-])O (stereo unspecified)	13.3 µM	> 58.7 µM	> 36.8 µM	> 57.1 µM	15.5 µM	54.6 µM	30.3 µM	> 89.5 µM	23.8 µM	> 100 µM	1.57 µM	4.31 µM	13 µM	20.4 µM	26.9 µM	> 89.6 µM	15.8 µM	40.9 µM	15.4 µM	36.1 µM
COc1cccc2c1C(=O)c1c(O)c3c(c(O)c1C2=O)CC(O)(C(C)=O)CC3OC1CC(N)C(O)C(C)O1 (stereo unspecified)	0.0177 µg/mL	0.0836 µg/mL	–	1.85 µg/mL	0.0221 µg/mL	2.08 µg/mL	0.0481 µg/mL	0.421 µg/mL	–	0.484 µg/mL	0.0894 µg/mL	0.33 µg/mL	0.0426 µg/mL	0.958 µg/mL	–	0.262 µg/mL	0.102 µg/mL	0.403 µg/mL	0.0177 µg/mL	3.98 µg/mL
Cc1nc2ccc(CN(C)c3ccc(C(=O)N[C@@H](CCC(=O)O)C(=O)O)s3)cc2c(=O)[nH]1	–	> 100 µM	–	> 100 µM	–	> 100 µM	–	> 100 µM	–	> 100 µM	–	> 100 µM	–	> 100 µM	–	> 100 µM	–	> 100 µM	–	> 100 µM
O=C(/C=C/c1ccc(B(O)O)cc1)/C=C/c1ccc(B(O)O)cc1	2.16 µM	5.57 µM	3.55 µM	15.2 µM	10.3 µM	22 µM	1.54 µM	5.57 µM	0.415 µM	3.89 µM	1.9 µM	4.24 µM	3.11 µM	9.27 µM	3.39 µM	12.1 µM	16 µM	40.9 µM	3.22 µM	13.9 µM
Cc1ccc(C(=O)N(CCCN)[C@@H](c2nc3cc(Cl)ccc3c(=O)n2Cc2ccccc2)C(C)C)cc1	< 0.01 µM	2.08 µM and 1.98 µM	< 0.01 µM	1.4 µM and 1.71 µM	< 0.01 µM and 0.01 µM	2.07 µM and 2.09 µM	< 0.01 µM	–	< 0.01 µM	1.59 µM and 1.33 µM	< 0.01 µM	< 0.01 µM	< 0.01 µM	–	–	1.97 µM and 2.35 µM	< 0.01 µM	–	< 0.01 µM	2.28 µM and 1.83 µM
Cc1ccc(NCCCN2CCN(CCCNc3ccc(C)c4sc5ccccc5c(=O)c34)CC2)c2c(=O)c3ccccc3sc12	–	> 100 µM	–	> 100 µM	–	> 100 µM	–	79.6 µM	–	> 100 µM	–	> 100 µM	–	> 100 µM	–	> 100 µM	–	93.8 µM	–	> 100 µM
CN1CCc2cc3c(cc2C1O)OCO3 (stereo unspecified)	17.6 µM and > 100 µM	34.5 µM and > 100 µM	15.9 µM and > 100 µM	31.6 µM and > 100 µM	18 µM and > 100 µM	36.2 µM and > 100 µM	–	82.3 µM and > 100 µM	–	23.3 µM and > 100 µM	–	11.9 µM and > 100 µM	–	–	–	30.8 µM and > 100 µM	–	13 µM and > 100 µM	20.4 µM and > 100 µM	41.4 µM and > 100 µM
Cc1nc2sccn2c1/C=C1/C(=O)Nc2ccccc21	15.1 µM	> 100 µM	7.65 µM	> 100 µM	5.13 µM	> 100 µM	19.4 µM	> 78.1 µM	1.02 µM	> 100 µM	0.582 µM	11 µM	2.36 µM	> 22.8 µM	52 µM	> 100 µM	5.73 µM	> 100 µM	5.69 µM	> 100 µM
O=[N+]([O-])c1ccc(Nc2ccccc2-c2ccccc2)c2nonc12	12.6 µM	32.6 µM	16.7 µM	> 86.8 µM	17.4 µM	42.7 µM	15.2 µM	62.8 µM	15.3 µM	> 72.4 µM	13.9 µM	45.9 µM	9.15 µM	22.8 µM	14.9 µM	36.8 µM	6.16 µM	20.3 µM	12.4 µM	28.2 µM
